Laboratory results reported in patent US9757375B2, “Compounds that inhibit human DNA ligases and methods of treating cancer” (University of Maryland, Baltimore, priority 2007, dated 2017).
“Also recorded” adds a separate entry of the source. Like-named read-outs stand apart in the source and are kept apart here.

How the values were obtained:
Assay in all cases: High-throughput fluorescence-based DNA joining (ligation) assay
Assay type in all cases: biochemical
human DNA ligase III = biological target: T1, human DNA ligase III (Homo sapiens, UniProt P49916); conditions: for inhibition of human DNA ligase III, in words: in vitro screen
T1 sequence (P49916 1-862 isoform P49916-4): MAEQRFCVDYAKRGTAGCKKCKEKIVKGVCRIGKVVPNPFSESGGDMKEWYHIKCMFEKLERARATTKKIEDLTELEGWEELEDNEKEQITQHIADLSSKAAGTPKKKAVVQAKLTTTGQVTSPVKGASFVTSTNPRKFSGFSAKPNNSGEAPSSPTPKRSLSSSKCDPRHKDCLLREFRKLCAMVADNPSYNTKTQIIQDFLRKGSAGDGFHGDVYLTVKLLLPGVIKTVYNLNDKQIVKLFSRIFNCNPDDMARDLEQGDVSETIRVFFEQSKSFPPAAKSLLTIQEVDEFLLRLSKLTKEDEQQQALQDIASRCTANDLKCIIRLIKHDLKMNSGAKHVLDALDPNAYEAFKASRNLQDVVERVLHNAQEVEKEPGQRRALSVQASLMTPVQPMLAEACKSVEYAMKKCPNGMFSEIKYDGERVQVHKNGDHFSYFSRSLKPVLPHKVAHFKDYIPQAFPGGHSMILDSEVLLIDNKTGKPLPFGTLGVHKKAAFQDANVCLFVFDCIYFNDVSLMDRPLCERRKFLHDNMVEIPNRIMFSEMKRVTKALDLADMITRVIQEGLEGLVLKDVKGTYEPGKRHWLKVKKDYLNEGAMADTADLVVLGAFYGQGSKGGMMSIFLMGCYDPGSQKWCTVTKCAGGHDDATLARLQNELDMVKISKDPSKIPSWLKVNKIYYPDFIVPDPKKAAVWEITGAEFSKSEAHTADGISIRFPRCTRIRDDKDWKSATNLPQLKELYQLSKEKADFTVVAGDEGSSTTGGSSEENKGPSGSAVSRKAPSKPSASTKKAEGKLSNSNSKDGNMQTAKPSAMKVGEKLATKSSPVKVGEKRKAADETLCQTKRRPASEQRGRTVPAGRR
Outline: (§1)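 Ligation joins an AF488-labelled and a BHQ1-labelled oligonucleotide. After denaturation and renaturation with a 20-fold excess of unlabelled competitor strand, the product forms a quenched hairpin, so joining is read as loss of 518 nm fluorescence. Ligase III used a nicked duplex; ligase IV used two duplexes with short complementary single-strand ends.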

human DNA ligase IV = human DNA ligase IV (Homo sapiens, UniProt P49917); conditions: for inhibition of human DNA ligase IV, in words: in vitro screen
Outline: as §1

hLigI = biological target: T2, hLigI (Homo sapiens, UniProt P18858); conditions: for inhibition of hLigI (DNA ligase I), in words: in vitro screen, 100 μmol/L, the 15 hLigI inhibitors inhibited by >50%
T2 construct: made in house
Outline: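 Nicked DNA substrate (10 pmol) was incubated with 0.25 pmol hLigI, with or without 100 μmol/L test compound, in duplicate. Afterwards the DNA was denatured and renatured with a 20-fold excess of unmodified oligonucleotide. Ligation forms an AF488/BHQ1 hairpin, read as reduced fluorescence at 518 nm.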

[1] = 100 μM, read-out: In vitro % inhib hLigIII 100
[2] = 100 uM, Ø not defined (0 in Table 5A), read-out: % activity Inhibition hLigIII 100 uM
[3] = read-out: % of inhibition @ 100 μM (Helen's data) hLigIII
[4] = 100 μM, read-out: % of inhibition @ 100 μM (Helen's data) hLigIV
[5] = 100 μM, read-out: In vitro % inhib hLigIV 100
[6] = 100 uM, Ø not defined (0 in Table 5A), read-out: % activity Inhibition hLigIV 100 uM
[7] = 100 uM, read-out: % activity Inhibition hLigI 100 uM
[8] = 100 μM, read-out: % of inhibition @ 100 μM (Helen's data) hLigI
[9] = 100 μM, read-out: In vitro % inhib hLigI 100
[10] = 100 uM, Ø not defined (0 in Table 5A)

T2 sequence (P18858 whole entry): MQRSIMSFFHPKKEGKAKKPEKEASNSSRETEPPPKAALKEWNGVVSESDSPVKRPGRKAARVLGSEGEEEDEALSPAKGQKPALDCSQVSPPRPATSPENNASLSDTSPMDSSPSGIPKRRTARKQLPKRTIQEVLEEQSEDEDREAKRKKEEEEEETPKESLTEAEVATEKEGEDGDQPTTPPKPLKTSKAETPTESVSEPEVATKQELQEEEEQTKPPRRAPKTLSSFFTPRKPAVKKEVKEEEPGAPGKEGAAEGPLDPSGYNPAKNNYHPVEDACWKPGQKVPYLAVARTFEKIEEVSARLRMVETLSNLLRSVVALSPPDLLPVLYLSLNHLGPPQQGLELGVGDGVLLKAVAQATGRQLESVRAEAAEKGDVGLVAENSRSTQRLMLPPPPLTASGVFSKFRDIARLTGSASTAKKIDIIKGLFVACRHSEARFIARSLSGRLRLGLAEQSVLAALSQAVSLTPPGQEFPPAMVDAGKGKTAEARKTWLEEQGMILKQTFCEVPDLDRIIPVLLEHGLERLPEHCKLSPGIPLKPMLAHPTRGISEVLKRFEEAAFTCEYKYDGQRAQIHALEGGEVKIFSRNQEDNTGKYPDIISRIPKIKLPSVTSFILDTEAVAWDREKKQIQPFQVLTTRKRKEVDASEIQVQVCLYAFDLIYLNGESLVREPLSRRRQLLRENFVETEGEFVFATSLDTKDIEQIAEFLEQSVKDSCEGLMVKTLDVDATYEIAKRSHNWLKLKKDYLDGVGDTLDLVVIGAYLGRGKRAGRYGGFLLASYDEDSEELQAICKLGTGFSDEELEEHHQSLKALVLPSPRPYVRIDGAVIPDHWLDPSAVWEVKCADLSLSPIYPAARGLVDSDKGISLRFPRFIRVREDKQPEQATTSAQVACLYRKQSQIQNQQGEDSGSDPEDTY
Chain of human DNA ligase IV (P49917 whole entry): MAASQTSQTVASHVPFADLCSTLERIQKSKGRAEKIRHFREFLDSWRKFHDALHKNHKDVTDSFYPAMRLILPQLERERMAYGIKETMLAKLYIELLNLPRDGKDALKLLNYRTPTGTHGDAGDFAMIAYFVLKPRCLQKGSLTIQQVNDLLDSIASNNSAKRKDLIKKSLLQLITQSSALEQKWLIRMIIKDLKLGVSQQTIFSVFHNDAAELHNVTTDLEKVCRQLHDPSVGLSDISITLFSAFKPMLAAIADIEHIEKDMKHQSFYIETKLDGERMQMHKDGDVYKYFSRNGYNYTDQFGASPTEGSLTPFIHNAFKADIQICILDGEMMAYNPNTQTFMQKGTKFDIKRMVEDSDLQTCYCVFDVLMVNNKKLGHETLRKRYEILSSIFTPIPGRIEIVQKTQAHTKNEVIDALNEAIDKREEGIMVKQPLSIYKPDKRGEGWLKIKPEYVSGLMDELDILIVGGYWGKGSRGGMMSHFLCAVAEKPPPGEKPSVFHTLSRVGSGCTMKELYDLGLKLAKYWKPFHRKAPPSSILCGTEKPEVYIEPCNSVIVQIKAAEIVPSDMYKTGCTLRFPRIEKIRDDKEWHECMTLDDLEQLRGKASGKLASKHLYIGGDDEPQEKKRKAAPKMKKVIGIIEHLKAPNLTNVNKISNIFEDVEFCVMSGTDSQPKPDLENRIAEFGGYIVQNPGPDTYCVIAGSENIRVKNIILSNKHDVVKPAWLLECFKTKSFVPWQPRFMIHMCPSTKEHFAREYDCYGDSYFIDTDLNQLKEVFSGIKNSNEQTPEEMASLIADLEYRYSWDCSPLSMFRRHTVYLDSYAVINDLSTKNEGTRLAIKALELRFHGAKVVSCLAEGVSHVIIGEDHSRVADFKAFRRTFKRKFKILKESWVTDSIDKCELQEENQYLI
Chain of human DNA ligase IV (Q13426 whole entry partner): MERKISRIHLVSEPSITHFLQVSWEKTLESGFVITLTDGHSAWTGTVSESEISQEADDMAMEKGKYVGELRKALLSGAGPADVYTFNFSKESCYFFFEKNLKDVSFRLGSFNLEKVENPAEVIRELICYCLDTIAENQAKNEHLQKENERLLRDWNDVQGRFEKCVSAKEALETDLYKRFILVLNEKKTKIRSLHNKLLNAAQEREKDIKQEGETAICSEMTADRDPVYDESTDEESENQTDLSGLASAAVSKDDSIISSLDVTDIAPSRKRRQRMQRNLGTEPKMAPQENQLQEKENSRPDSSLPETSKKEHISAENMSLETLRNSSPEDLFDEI

Structure (SMILES) | inhibition at 100 µM (human DNA ligase III; [1]) [%] | inhibition at 100 µM (human DNA ligase III; [2]) [%] | inhibition of human DNA ligase III, in words (human DNA ligase III) | inhibition at 100 µM (human DNA ligase III; [3]) [%] | inhibition at 100 µM (human DNA ligase IV; [4]) [%] | inhibition at 100 µM (human DNA ligase IV; [5]) [%] | inhibition of human DNA ligase IV, in words (human DNA ligase IV) | inhibition at 100 µM (hLigI; [7]) [%] | inhibition at 100 µM (hLigI; [8]) [%] | inhibition at 100 µM (hLigI; [9]) [%] | inhibition of hLigI (DNA ligase I), in words (hLigI) | % activity Inhibition hLigIV 100 uM (human DNA ligase IV; [10]) | % activity Inhibition hLigIII 100 uM (human DNA ligase III; [10]) | further results
Cc1oc(C(=O)O)cc1CSCc1cc(C(=O)O)c(C)o1 [Compound 197] | 96 ± 4 | 96.5 ± 3.5 | inhibit all three human DNA ligases | 97 | 57 | 57 ± 3 | inhibit all three human DNA ligases | 91 ± 6.9 | 91 | 91 ± 7 | inhibited hLigI; also recorded: inhibit all three human DNA ligases |  |  | inhibition at 100 µM (human DNA ligase IV; [6]): > 60%
O=c1[nH]ncc(N/N=C\c2ccc(O)c([N+](=O)[O-])c2)c1Cl [Compound 82] | 29 ± 7 | 29.2 ± 7.3 |  |  |  | 0 | do not inhibit DNA ligase IV | 59.8 ± 1.7 |  | 60 ± 2 | inhibited hLigI; also recorded: inhibit hLigI but not T4 DNA ligase; also recorded: specific for DNA ligase I; also recorded: inhibit DNA ligase 1; also recorded: only inhibits DNA ligase I; also recorded: inhibits only hLigI | Ø |  | 
O=C(O)CSc1cc(Cl)c2nonc2c1[N+](=O)[O-] [Compound 64] | 49 ± 1 | 48.5 ± 0.1 | inhibit all three human DNA ligases | 49 | 52 | 52 ± 1 | inhibit all three human DNA ligases | 60.6 ± 0.54 | 61 | 61 ± 1 | inhibited hLigI; also recorded: inhibit all three human DNA ligases |  |  | inhibition at 100 µM (human DNA ligase IV; [6]): 51.9 ± 1.2%
Cc1c(Br)cc(NCC(=O)N/N=C\c2cc([N+](=O)[O-])ccc2O)cc1Br [Compound 67] | 88 ± 12 | 88.2 ± 11.6 | specifically inhibit DNA ligases I and III; also recorded: inhibits DNA ligase III; also recorded: inhibits both hLigI and hLigIII | 88 | < 20 | 0 | do not inhibit DNA ligase IV | 78.3 ± 8.5 | 78 | 78 ± 8 | inhibited hLigI; also recorded: inhibit hLigI but not T4 DNA ligase; also recorded: specifically inhibit DNA ligases I and III; also recorded: inhibit DNA ligase 1; also recorded: inhibits both hLigI and hLigIII | Ø |  | 
COc1ccc(-c2cnc3c(O)nc(O)nc3n2)cc1 [Compound 190] | 0 |  |  |  |  | 0 |  | 52.5 ± 6.6 |  | 53 ± 7 | inhibited hLigI; also recorded: specific for DNA ligase I | Ø | Ø | 
O=C(Cn1cnc([N+](=O)[O-])n1)N/N=C/c1ccc(O)cc1O [Compound 151] | 0 |  |  | < 20 | < 20 | 0 |  | 25.9 ± 1.2 | 25 | 26 ± 1 | specific for DNA ligase I | Ø | Ø | 
O=C1Nc2ccccc2Oc2cc([N+](=O)[O-])cc([N+](=O)[O-])c21 [Compound 180] |  |  |  | > 40 |  |  |  |  |  |  | inhibited hLigI |  |  | inhibition at 100 µM (human DNA ligase IV; read-out: % of inhibition @ 100 μM (Helen's data) hLigIV): < 20%; inhibition at 100 µM (hLigI; read-out: % of inhibition @ 100 μM (Helen's data) hLigI): 58%
C/C(O)=C1/C(=O)N(c2nc3ccccc3s2)N=C1c1ccccc1 [Compound 43] | 0 |  |  |  |  | 0 |  | 29.2 ± 3.5 |  | 29 ± 4 | specific for DNA ligase I | Ø | Ø | 
CS(=O)(=O)NNC(=O)C(=O)NNc1ccccc1 [Compound 184] |  |  |  |  |  |  |  |  |  |  | specific for DNA ligase I | Ø | Ø | % of inhibition @ 100 μM (Helen's data) hLigIII (human DNA ligase III; 100 μM): NI (NI- no inhibition); In vitro % inhib hLigIII 100 (μM) (human DNA ligase III; 100 μM): 0%; % of inhibition @ 100 μM (Helen's data) hLigIV (human DNA ligase IV; 100 μM): NI (NI- no inhibition); In vitro % inhib hLigIV 100 (μM) (human DNA ligase IV; 100 μM): 0%; % activity Inhibition hLigI 100 uM (hLigI; 100 uM): 37.7 ± 12.4%; % of inhibition @ 100 μM (Helen's data) hLigI (hLigI; 100 μM): 38%; In vitro % inhib hLigI 100 (μM) (hLigI; 100 μM): 38 ± 12%
CCCCC(=O)c1ccc(O)cc1O [Compound 213] | 25 ± 1 | 25.2 ± 0.46 | specifically inhibit DNA ligases I and III |  |  | 0 |  | 36.4 ± 8.6 |  | 36 ± 9 | specifically inhibit DNA ligases I and III | Ø |  | 
O=C(c1ccc(O)cc1)c1ccccc1O [Compound 200] | 60 ± 5 | 59.5 ± 5.2 | specifically inhibit DNA ligases I and III | 60 | < 20 | 0 |  | 50.7 ± 10.9 | 51 | 51 ± 11 | inhibited hLigI; also recorded: specifically inhibit DNA ligases I and III | Ø |  | 
Nc1nc(S)nc(O)c1/N=C/c1ccccc1 [Compound 189] | 53 ± 5 | 52.6 ± 4.8 | inhibits all three human DNA ligases; also recorded: inhibits DNA ligase III |  |  | 41 ± 6 | inhibits all three human DNA ligases; also recorded: inhibits DNA ligase IV | 68.8 ± 4.9 |  | 69 ± 5 | inhibited hLigI; also recorded: inhibit hLigI but not T4 DNA ligase; also recorded: inhibits all three human DNA ligases; also recorded: inhibit DNA ligase 1 |  |  | inhibition at 100 µM (human DNA ligase IV; [6]): > 50%
